# Experimental data taken from paper PMC10746543, “Design principles for cyclin K molecular glue degraders” (Nature Chemical Biology, 2023).
# Several values for one entry are separate records, joined by “and”; a condition that tells them apart may be missing. Equal entries are not always repeated. Where two headings read alike, the source gives them in different places.
# Experiments:
# CDK12–cyclin K and DDB1 = target: T1, CDK12–cyclin K and DDB1 (Homo sapiens, UniProt Q16531+Q9NYV4, K965R); experiment: TR-FRET ternary complex formation assay (compound titration); assay type: binding; details: for TR-FRET signal at compound concentration 0.468 nM / TR-FRET signal at compound concentration 2.16 nM / TR-FRET signal at compound concentration 3.6 nM / TR-FRET signal at compound concentration 7.92001 nM / TR-FRET signal at compound concentration 15.84 nM / TR-FRET signal at compound concentration 30.96 nM / TR-FRET signal at compound concentration 62.6401 nM / TR-FRET signal at compound concentration 125.28 nM / TR-FRET signal at compound concentration 244.8 nM / TR-FRET signal at compound concentration 993.601 nM / TR-FRET signal at compound concentration 2001.6 nM: raw replicate titration data
# T1 construct: His6–CDK12 (a.a. 713–1,052); full-length or beta-propeller B domain deletion (ΔBPB: a.a. 396–705 deleted) constructs of His6–DDB1ΔBPB, StrepII–Avi–DDB1, or His6–Spy–DDB1; made in house; host or cells: Trichoplusia ni High Five insect cells (baculovirus)
# T1 sequence (Q9NYV4 713-1052 K965R): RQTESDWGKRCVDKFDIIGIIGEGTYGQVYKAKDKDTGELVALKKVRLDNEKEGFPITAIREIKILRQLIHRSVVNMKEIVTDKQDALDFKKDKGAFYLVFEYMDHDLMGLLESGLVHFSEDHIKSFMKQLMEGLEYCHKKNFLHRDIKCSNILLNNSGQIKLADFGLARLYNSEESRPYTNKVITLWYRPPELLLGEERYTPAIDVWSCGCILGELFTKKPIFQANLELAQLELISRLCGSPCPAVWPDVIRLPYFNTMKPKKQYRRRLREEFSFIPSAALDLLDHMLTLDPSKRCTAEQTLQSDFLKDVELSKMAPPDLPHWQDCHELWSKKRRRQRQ
# T1 sequence (O75909 1-267 partner): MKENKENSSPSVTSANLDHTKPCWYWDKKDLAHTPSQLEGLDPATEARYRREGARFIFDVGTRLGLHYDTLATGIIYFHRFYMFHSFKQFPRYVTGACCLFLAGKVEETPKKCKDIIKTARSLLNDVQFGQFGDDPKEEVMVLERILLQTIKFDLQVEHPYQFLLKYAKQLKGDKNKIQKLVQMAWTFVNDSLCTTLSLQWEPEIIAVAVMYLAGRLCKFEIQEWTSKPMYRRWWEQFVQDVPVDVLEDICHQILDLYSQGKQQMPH
# T1 sequence (Q16531 whole entry): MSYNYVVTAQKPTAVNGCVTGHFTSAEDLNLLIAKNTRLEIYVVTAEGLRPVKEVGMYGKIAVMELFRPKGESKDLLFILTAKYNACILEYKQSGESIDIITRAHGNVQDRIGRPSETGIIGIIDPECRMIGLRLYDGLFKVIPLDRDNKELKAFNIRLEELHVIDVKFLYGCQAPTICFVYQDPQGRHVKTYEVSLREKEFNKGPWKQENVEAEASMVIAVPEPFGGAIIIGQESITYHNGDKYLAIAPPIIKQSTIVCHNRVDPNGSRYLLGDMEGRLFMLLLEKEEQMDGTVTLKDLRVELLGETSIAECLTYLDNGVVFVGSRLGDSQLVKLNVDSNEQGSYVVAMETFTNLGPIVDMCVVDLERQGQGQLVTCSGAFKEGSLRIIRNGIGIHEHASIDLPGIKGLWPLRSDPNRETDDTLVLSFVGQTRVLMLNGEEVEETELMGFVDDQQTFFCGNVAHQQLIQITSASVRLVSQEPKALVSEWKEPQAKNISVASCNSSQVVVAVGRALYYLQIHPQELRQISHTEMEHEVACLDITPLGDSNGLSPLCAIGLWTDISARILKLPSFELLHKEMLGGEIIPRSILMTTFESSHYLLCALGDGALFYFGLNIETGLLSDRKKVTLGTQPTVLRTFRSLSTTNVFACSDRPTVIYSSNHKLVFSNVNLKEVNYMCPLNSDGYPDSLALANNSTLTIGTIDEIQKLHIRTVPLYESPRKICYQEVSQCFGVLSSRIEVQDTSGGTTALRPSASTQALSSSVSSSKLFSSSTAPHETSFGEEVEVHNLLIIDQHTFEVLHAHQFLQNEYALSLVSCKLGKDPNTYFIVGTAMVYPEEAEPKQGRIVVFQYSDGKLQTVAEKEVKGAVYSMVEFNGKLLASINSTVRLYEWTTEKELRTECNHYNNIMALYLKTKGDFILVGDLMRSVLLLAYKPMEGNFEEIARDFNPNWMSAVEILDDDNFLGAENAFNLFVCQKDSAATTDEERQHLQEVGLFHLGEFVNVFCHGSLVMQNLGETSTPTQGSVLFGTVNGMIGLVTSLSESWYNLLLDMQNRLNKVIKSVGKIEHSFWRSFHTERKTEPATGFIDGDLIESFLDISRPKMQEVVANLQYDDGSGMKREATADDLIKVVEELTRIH
# Method in brief: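 TR-FRET ratio 520/490 nm; 70 μs delay before read to suppress background.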
# HEK293T cells = experiment: Drug sensitivity assay (CellTiter-Glo viability) with or without MLN4924 pretreatment; assay type: cell-based, human; details: Supplementary Table 2; for EC50: Homo sapiens, HEK-293T, HEK293T viability, 72 h, compound alone, read-out: Cellular assays EC50; for Toxicity rescue: MLN4924-mediated cytotoxicity rescue, 10 µM used where n.d.
# Method in brief: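 Luminescent ATP read-out (CellTiter-Glo) after 3 days of drug exposure, normalised to DMSO controls. Cells were HEK293T–Cas9, pretreated with 100 nM MLN4924 or DMSO for 2 h before drug dispensing.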
# CDK12 = target: T2, CDK12 (Homo sapiens, UniProt Q16531+Q9NYV4); experiment: Label-free quantitative mass spectrometry in MDA-MB-231 cells, CDK12; assay type: cell-based; details: for CDK12 peptide count: label-free quantitative MS, replicate values; for CDK12 peptide count (DMSO-normalised): normalised to DMSO = 1, replicate values
# T2 construct: endogenous in cells; host or cells: MDA-MB-231
# T2 sequence (Q9NYV4 whole entry): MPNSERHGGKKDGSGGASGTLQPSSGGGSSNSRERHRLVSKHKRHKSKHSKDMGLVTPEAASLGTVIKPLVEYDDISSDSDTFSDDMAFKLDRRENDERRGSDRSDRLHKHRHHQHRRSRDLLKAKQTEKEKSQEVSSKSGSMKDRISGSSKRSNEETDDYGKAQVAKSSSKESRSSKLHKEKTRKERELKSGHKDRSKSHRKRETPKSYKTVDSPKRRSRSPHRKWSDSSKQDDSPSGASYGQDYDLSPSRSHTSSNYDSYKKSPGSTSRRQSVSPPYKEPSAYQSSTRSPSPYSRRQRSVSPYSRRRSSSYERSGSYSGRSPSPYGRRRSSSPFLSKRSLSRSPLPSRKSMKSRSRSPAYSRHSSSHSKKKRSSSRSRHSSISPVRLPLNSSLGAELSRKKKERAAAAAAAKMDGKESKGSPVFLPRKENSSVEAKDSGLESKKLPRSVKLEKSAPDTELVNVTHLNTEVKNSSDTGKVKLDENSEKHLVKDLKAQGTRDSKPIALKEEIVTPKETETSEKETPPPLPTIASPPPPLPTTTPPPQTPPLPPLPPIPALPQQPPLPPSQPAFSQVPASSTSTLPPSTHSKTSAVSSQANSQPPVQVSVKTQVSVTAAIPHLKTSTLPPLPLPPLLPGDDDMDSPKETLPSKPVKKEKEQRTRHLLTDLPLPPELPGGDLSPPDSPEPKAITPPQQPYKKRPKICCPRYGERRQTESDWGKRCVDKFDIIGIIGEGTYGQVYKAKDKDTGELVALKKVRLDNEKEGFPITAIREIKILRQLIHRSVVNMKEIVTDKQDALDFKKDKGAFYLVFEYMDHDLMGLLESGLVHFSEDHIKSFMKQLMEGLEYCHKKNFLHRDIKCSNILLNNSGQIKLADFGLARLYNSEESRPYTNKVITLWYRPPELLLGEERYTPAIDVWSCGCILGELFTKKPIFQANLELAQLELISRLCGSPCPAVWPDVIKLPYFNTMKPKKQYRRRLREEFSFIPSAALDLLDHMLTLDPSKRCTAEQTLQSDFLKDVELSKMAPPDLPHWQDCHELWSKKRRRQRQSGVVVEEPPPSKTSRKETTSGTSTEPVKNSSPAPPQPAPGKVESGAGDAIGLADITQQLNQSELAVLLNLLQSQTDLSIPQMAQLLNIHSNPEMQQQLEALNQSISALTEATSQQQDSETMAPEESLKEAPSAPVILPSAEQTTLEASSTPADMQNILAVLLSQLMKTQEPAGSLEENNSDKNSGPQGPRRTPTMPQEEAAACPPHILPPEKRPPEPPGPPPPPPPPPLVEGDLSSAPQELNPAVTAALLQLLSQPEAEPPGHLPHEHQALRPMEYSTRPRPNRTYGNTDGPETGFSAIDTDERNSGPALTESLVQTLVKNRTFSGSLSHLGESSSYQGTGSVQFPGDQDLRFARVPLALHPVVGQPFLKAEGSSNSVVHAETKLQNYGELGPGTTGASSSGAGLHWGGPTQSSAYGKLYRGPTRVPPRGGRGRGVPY
# T2 sequence (O75909 whole entry partner): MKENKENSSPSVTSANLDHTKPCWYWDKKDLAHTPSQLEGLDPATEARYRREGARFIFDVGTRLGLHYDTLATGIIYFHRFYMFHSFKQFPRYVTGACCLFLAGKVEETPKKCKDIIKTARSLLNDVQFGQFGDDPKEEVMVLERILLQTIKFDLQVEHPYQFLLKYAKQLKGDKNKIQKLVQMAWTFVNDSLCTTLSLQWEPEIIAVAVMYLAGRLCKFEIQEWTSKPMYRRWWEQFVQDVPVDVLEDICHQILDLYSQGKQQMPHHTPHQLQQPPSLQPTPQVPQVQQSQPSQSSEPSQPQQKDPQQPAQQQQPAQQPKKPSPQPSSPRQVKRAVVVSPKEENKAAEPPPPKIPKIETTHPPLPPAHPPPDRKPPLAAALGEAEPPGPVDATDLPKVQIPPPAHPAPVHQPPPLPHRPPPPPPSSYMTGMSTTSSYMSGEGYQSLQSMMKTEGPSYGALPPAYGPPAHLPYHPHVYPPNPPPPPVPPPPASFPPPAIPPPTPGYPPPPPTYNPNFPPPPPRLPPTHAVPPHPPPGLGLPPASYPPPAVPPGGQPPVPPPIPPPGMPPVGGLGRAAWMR
# T2 sequence (Q16531 2-1140 limits assumed): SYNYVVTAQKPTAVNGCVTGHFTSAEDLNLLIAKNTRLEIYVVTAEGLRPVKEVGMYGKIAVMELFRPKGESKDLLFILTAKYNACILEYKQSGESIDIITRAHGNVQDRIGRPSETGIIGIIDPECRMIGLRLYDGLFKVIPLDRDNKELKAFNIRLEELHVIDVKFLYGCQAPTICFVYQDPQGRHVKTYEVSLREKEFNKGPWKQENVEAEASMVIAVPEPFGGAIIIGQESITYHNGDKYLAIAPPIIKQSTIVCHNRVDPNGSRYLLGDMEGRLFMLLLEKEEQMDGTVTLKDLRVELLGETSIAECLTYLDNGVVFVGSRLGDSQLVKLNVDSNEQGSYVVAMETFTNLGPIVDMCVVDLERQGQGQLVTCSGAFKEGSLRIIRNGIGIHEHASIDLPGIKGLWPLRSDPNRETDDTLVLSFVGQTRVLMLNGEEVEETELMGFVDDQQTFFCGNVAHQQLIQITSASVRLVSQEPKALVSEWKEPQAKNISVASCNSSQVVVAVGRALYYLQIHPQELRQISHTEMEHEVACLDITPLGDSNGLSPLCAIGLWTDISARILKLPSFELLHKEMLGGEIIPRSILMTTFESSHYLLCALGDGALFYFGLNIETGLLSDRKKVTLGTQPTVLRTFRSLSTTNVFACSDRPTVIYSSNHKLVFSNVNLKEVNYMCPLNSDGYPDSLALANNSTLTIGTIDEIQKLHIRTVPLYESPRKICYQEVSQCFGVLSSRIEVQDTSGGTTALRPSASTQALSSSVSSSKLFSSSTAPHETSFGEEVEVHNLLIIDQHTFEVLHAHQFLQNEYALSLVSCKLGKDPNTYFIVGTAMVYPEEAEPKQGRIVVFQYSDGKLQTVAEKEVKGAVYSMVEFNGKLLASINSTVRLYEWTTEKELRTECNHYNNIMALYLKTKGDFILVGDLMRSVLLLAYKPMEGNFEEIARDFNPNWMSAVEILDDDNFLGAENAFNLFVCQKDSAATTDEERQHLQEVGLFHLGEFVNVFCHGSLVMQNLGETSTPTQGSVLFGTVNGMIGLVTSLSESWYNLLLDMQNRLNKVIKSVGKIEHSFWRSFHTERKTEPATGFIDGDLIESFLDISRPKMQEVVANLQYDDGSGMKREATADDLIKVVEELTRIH
# Description: MDA-MB-231 cells were treated with DMSO or a cyclin K degrader compound at 1 µM for 5 h. Cells were collected by centrifugation and washed with phosphate-buffered saline before snap freezing in liquid nitrogen. Cells were lysed by addition of lysis buffer (8 M urea, 50 mM NaCl, 50 mM 4-(2-hydroxyethyl)-1-piperazineethanesulfonic acid (EPPS) pH 8.5, and protease and phosphatase inhibitors) and homogenization by bead beating (BioSpec) for three repeats of 30 s at 2,400 rpm. Bradford assay was used to determine the final protein concentration in the clarified cell lysate. Then 50 µg of protein for each sample was reduced, alkylated and precipitated using methanol/chloroform as previously described, and the resulting washed precipitated protein was allowed to air dry. Precipitated protein was resuspended in 4 M urea, 50 mM HEPES pH 7.4, followed by dilution to 1 M urea with the addition of 200 mM EPPS, pH 8. Proteins were first digested with LysC (1:50; enzyme:protein) for 12 h at room temperature. The LysC digestion was diluted to 0.5 M urea with 200 mM EPPS pH 8 followed by digestion with trypsin (1:50; enzyme:protein) for 6 h at 37 °C. Sample digests were acidified with formic acid to a pH of 2–3 before desalting using C18 solid phase extraction plates (SOLA, Thermo Fisher Scientific). Desalted peptides were dried in a vacuum-centrifuged and reconstituted in 0.1% formic acid for liquid chromatography–mass spectrometry analysis.
# Data were collected using a TimsTOF Pro2 (Bruker Daltonics) coupled to a nanoElute LC pump (Bruker Daltonics) via a CaptiveSpray nano-electrospray source. Peptides were separated on a reversed-phase C18 column (25 cm × 75 µm inner diameter, […], IonOpticks) containing an integrated captive spray emitter. Peptides were separated using a 50 min gradient of 2–30% buffer B (acetonitrile in 0.1% formic acid) with a flow rate of 250 nl min^−1 and column temperature maintained at 50 °C.
# Data-dependent acquisition (DDA) was performed in Parallel Accumulation-Serial Fragmentation (PASEF) mode to determine effective ion mobility windows for downstream diaPASEF data collection. The ddaPASEF parameters included: 100% duty cycle using accumulation and ramp times of 50 ms each, one Trapped Ion Mobility Spectrometry(TIMS)-MS scan and ten PASEF ramps per acquisition cycle. The TIMS-MS survey scan was acquired between 100 m/z and 1,700 m/z and 1/K0 of 0.7–1.3 V s cm^−2. Precursors with one to five charges were selected, and those that reached an intensity threshold of 20,000 arbitrary units were actively excluded for 0.4 min. The quadrupole isolation width was set to 2 m/z for m/z < 700 and 3 m/z for m/z > 800, with the m/z between 700 m/z and 800 m/z being interpolated linearly. […] To perform diaPASEF, the precursor distribution in the DDA m/z-ion mobility plane was used to design an acquisition scheme for data-independent acquisition (DIA) data collection that included two windows in each 50 ms diaPASEF scan. Data were acquired using 16 of these 25 Da precursor double window scans (creating 32 windows) that covered the diagonal scan line for doubly and triply charged precursors, with singly charged precursors able to be excluded by their position in the m/z-ion mobility plane. These precursor isolation windows were defined between 400 m/z and 1,200 m/z and 1/K0 of 0.7–1.3 V s cm^−2.
# DirectDIA mode includes first extracting the DIA data into a collection of MS2 spectra which are searched using Spectronaut’s Pulsar search engine. The search results are then used to generate a spectral library which is then employed for the targeted analysis of the DIA data. MS/MS spectra were searched against a Swissprot human database (January 2021). Database search criteria largely followed the default settings for directDIA including: tryptic with two missed cleavages, fixed carbomidomethylation of cysteine, and variable oxidation of methionine and acetylation of protein N-termini and precursor Q-value (FDR) cut-off of 0.01. […]
# [1] = compound concentration 0.468 nM
# [2] = compound concentration 7.92001 nM
# [3] = compound concentration 15.84 nM
# [4] = compound concentration 30.96 nM
# [5] = compound concentration 62.6401 nM
# [6] = compound concentration 125.28 nM
# [7] = compound concentration 244.8 nM
# [8] = compound concentration 993.601 nM
# [9] = compound concentration 2001.6 nM
# [10] = in vitro complex formation, 50 nM CDK12–cyclin K, 100 nM DDB1, text and figures, read-out: TR-FRET EC50
# [11] = sheet MOESM7, read-out: log TR-FRET EC50 (converted)
# [12] = source data sheet correlations, read-out: TR-FRET EC50
SMILES,TR-FRET signal at compound concentration 0.468 nM (CDK12–cyclin K and DDB1; [1]),TR-FRET signal at compound concentration 2.16 nM (CDK12–cyclin K and DDB1; compound concentration 2.16 nM),TR-FRET signal at compound concentration 3.6 nM (CDK12–cyclin K and DDB1; compound concentration 3.6 nM),TR-FRET signal at compound concentration 7.92001 nM (CDK12–cyclin K and DDB1; [2]),TR-FRET signal at compound concentration 15.84 nM (CDK12–cyclin K and DDB1; [3]),TR-FRET signal at compound concentration 30.96 nM (CDK12–cyclin K and DDB1; [4]),TR-FRET signal at compound concentration 62.6401 nM (CDK12–cyclin K and DDB1; [5]),TR-FRET signal at compound concentration 125.28 nM (CDK12–cyclin K and DDB1; [6]),TR-FRET signal at compound concentration 244.8 nM (CDK12–cyclin K and DDB1; [7]),TR-FRET signal at compound concentration 993.601 nM (CDK12–cyclin K and DDB1; [8]),TR-FRET signal at compound concentration 2001.6 nM (CDK12–cyclin K and DDB1; [9]),EC50 (CDK12–cyclin K and DDB1; [10]) [nM],EC50 (CDK12–cyclin K and DDB1; [11]) [nM],EC50 (CDK12–cyclin K and DDB1; [12]) [nM],EC50 (HEK293T cells) [nM],Toxicity rescue (HEK293T cells) [%],CDK12 peptide count (CDK12),CDK12 peptide count (DMSO-normalised) (CDK12),TR-FRET signal (CDK12–cyclin K and DDB1; [1]),TR-FRET signal (CDK12–cyclin K and DDB1; compound concentration 2.16 nM),also measured
CC[C@H](CO)Nc1nc(NCc2nc3cc(Cl)c(Cl)cc3[nH]2)c2ncn(C(C)C)c2n1 [DS17],0.2691 and 0.2681 and 0.2563 and 0.2452,0.3644 and 0.3794 and 0.3582 and 0.3855,0.5749 and 0.6382 and 0.6238 and 0.6481,1.103 and 1.253 and 1.275 and 1.336,2.342 and 2.592 and 2.673 and 2.949,3.985 and 4.064 and 4.264 and 4.269,4.135 and 4.141 and 4.254 and 4.343,4.238 and 4.311 and 4.291 and 4.347,4.1978 and 4.255 and 4.25 and 4.345,4.229 and 4.264 and 4.321 and 4.299,4.223 and 4.116 and 4.3288 and 4.427,13 ± 0.3,13.2,13.2,93,53,546.795 and 667.348,0.6075 and 0.6893,–,–,–
Cc1cccc(Nc2nc(CC(=O)Nc3ncc(C)s3)cs2)n1 [HQ461],–,–,–,–,–,–,–,–,–,–,–,43 ± 13,42.7,42.7,1300,159,703.981 and 744.171,0.7821 and 0.7686,0.1979 and 0.1985 and 0.1957,0.2749 and 0.2453 and 0.2785,TR-FRET signal (CDK12–cyclin K and DDB1; compound concentration 3.6 nM): 0.4419 and 0.4117 and 0.4333 and 0.5417 and 0.5175; TR-FRET signal (CDK12–cyclin K and DDB1; [2]): 0.7305 and 0.6786 and 0.7304; TR-FRET signal (CDK12–cyclin K and DDB1; [3]): 1.213 and 1.144 and 1.137 and 1.215 and 1.133; TR-FRET signal (CDK12–cyclin K and DDB1; [4]): 1.762 and 1.75 and 1.847; TR-FRET signal (CDK12–cyclin K and DDB1; [5]): 2.4486 and 2.52 and 2.516 and 2.475 and 2.32; TR-FRET signal (CDK12–cyclin K and DDB1; [6]): 3.077 and 3.1244 and 3.038; TR-FRET signal (CDK12–cyclin K and DDB1; [7]): 3.496 and 3.492 and 3.484 and 3.752 and 3.554; TR-FRET signal (CDK12–cyclin K and DDB1; [8]): 3.886 and 3.922 and 3.8902 and 4.115 and 3.832; TR-FRET signal (CDK12–cyclin K and DDB1; [9]): 3.927 and 3.936 and 3.967 and 4.085 and 3.674
Cn1cc(-n2cnc3c(NCc4nc5cc(Cl)c(Cl)cc5[nH]4)nc(N4CCOCC4)nc32)cn1 [SR-4835],0.24 and 0.2487 and 0.176 and 0.1833 and 0.1905 and 0.1902,0.2823 and 0.3111 and 0.2192 and 0.2275 and 0.225 and 0.234,0.3779 and 0.4354 and 0.3063 and 0.3176 and 0.3203 and 0.3168,0.6106 and 0.7496 and 0.4912 and 0.5419 and 0.5567 and 0.5439,1.0796 and 1.304 and 0.9239 and 1.0376 and 1.022 and 1.028,1.682 and 1.792 and 1.613 and 1.69 and 1.622 and 1.648,1.888 and 1.962 and 1.877 and 1.886 and 1.857 and 1.865,1.977 and 2.1 and 1.914 and 1.988 and 1.925 and 1.931,2.037 and 2.154 and 1.951 and 1.963 and 1.955 and 1.942,2.0169 and 2.142 and 1.9225 and 1.946 and 1.977 and 1.949,2.032 and 2.062 and 1.95 and 1.938 and 1.928 and 1.943,–,–,–,42,645,613.534 and 654.471,0.6817 and 0.676,0.24 and 0.2487 and 0.176 and 0.1833 and 0.1905 and 0.1902,0.2823 and 0.3111 and 0.2192 and 0.2275 and 0.225 and 0.234,TR-FRET signal (CDK12–cyclin K and DDB1; compound concentration 3.6 nM): 0.3779 and 0.4354 and 0.3063 and 0.3176 and 0.3203 and 0.3168; TR-FRET signal (CDK12–cyclin K and DDB1; [2]): 0.6106 and 0.7496 and 0.4912 and 0.5419 and 0.5567 and 0.5439; TR-FRET signal (CDK12–cyclin K and DDB1; [3]): 1.0796 and 1.304 and 0.9239 and 1.0376 and 1.022 and 1.028; TR-FRET signal (CDK12–cyclin K and DDB1; [4]): 1.682 and 1.792 and 1.613 and 1.69 and 1.622 and 1.648; TR-FRET signal (CDK12–cyclin K and DDB1; [5]): 1.888 and 1.962 and 1.877 and 1.886 and 1.857 and 1.865; TR-FRET signal (CDK12–cyclin K and DDB1; [6]): 1.977 and 2.1 and 1.914 and 1.988 and 1.925 and 1.931; TR-FRET signal (CDK12–cyclin K and DDB1; [7]): 2.037 and 2.154 and 1.951 and 1.963 and 1.955 and 1.942; TR-FRET signal (CDK12–cyclin K and DDB1; [8]): 2.0169 and 2.142 and 1.9225 and 1.946 and 1.977 and 1.949; TR-FRET signal (CDK12–cyclin K and DDB1; [9]): 2.032 and 2.062 and 1.95 and 1.938 and 1.928 and 1.943
